# Measurements as given in patent US20130012473A1, “COMBINED USE OF PHOSPHOLIPID AND SULFATE GROUPS-CARRYING POLYSACCHARIDES FOR INHIBITING METASTATIC SPREAD” (KTB TUMORFORSCHUNGSGESELLSCHAFT MBH, priority 2010, published 2013).
# Assays:
# B16.F10 cells = test: Fatty acid composition of cell lysates by GC analysis; format: cell-based, mouse
# Description: Determination of fatty acid composition in cells and culture medium: Lipid extraction was performed according to the modified method of Bligh and Dyer (Bligh, E. G. and Dyer, W. J., Can. J. Biochem. Physiol. 37:911-917 (1959). For derivatization, the dried lipid extracts were subjected to methanol and TMSH and heated up to 100° C. for 10 min (Techne Dri Block DB-3D Techne, Stone, UK). Gas chromatography analysis was performed by an HP 5890 Series II Plus equipped with autosampler GC/SFC injector and flame ionisation detector (FID) with helium as carrier gas at 1 ml/min. Oven temperature program started with 150° C. for 3 min, up to 220° C. with a rate of 5° C./min, 220° C. for 3.5 min, split injection (split flow 100 ml/min, split ratio 1:100), 5 μl of injection volume, injector temperature 260° C. and FID at 280° C. on an Agilent DB-23 column (30 m, 0.25 mm ID, 0.25 μm). Integration of peak areas was performed with the HP software HP GC ChemStation (Rev.A.06.03[509]) running the GC system. Identification of peaks was accomplished by comparison to a fatty acid standard mixture.
# Example 3: Cell membrane alterations induced by LysoPC treatment. In order to analyze membrane alterations caused by exogenous LysoPC the kinetics of changed fatty acid profiles of B16.F10 cells were evaluated by GC analysis. […] Between 48 h and 72 h, a plateau was apparently reached (C17:0: ˜55%). […]
# VLA-4 = test: Flow cytometry, VLA-4 surface expression (anti-mouse CD49d mAb); format: cell-based; conditions: repeatedly incubated with 450 μM LysoPC for 13 days
# Description: FIG. 3: Impact of exogenous LysoPC on the surface expression of VLA-4 or VCAM-1- and P-selectin-ligands. (A) Surface expression of VLA-4 on B16.F10 cells treated with 450 μM LysoPC for 13 days was controlled by flow cytometric analysis. […] FACS histograms (A-C) show one representative of three independent experiments. In all experiments cells only incubated with the respective FITC-conjugated detection antibody served as control.
# [1] = system: B16.F10 ELN melanoma cells; test: In vivo bioluminescence imaging of metastatic spread; design: species or system mouse; conditions: measured once weekly
# Description: Metastatic spread was also measured once weekly by in vivo bioluminescence as described previously (Jantscheff, P. et al., Prostate 69:1151-1163 (2009)). Overlays of in vivo images and mouse photographs allowed to localize the metastatic lesions in lung and at the injection sites (D: black arrows) even in late images (D: day 14).
# [2] = system: B16.F10 ELN melanoma cells; test: Experimental lung metastasis model, luciferase assay of lung homogenates; format: in vivo, mouse
# Description: Generation of luciferase expressing B16.F10 melanoma cells: For sensitive detection of metastases in vivo in lung and other murine tissues, stably luciferase-transduced B16.F10 ELN melanoma cells were established as recently described (Bornmann, C. et al., Cancer Chemother. Pharmacol. 61:395-405 (2008)).
# Animal experiments: Lung metastases were induced by injecting 3×10^5 cells in 100 μl PBS into the tail vein of male C57BI/6N mice (Charles River Laboratories, Sulzfeld, Germany) (Ludwig, R. J. et al., Cancer Res. 64:2743-2750 (2004)). […] In a further experiment, animals were pre-treated 30 min before cell injection with 50 IU (Ludwig, R. J. et al., Cancer Res. 64:2743-2750 (2004)) unfractionated heparin (Ratiopharm GmbH, Ulm, Germany), followed by injection of either long-term 450 μM LysoPC treated or DMEM control medium cultured B16.F10 ELN cells. Experiments were terminated on day 14 (see establishment of the model—FIG. 9). Tissues were removed and stored as snap frozen samples. Metastatic lesions were quantified by homogenizing the tissues in luciferase lysis buffer and measuring in a luciferase assay (Promega E1501) as described (Jantscheff, P. et al., Establishment of human orthotopic LNCaP prostate cancer xenograft metastases model: Effect of Gemcitabine and GemLip. Clin. Exp. Metastasis: in press (2009); Jantscheff, P. et al., Prostate 69:1151-1163 (2009)).
# Example 4: Inhibition of in vivo metastasis of B16.F10 ELN cells pretreated with LysoPC. […] For a sensitive quantitative analysis of metastatic spread in the lung, luciferase-transduced B16.F10 ELN cells were used. […]
# To establish the mice metastasis model with luciferase-transduced B16.F10 melanoma cells, metastatic lesions in the lung and other tissues (those strongly supplied with blood, spleen, liver, kidney) were investigated at different time points (6 h, 24 h, 7 d, 14 d, and 19 d). Sensitivity of in vitro detection of metastatic lesions was determined as recently described (Jantscheff, P. et al., Prostate 69:1151-1163 (2009)) and limited corresponding to the detection of about 1000 cells in 1 ml tissue lysate (data not shown). Three to four animals were analyzed at each time point and metastatic lesions in lung and other tissues were determined by in vitro luciferase assay in tissue homogenates (see Material and Methods). As shown in A) significant metastasis could be detected first at day 7 and reached a plateau at day 14 in the lung. […] Therefore, in future experiments the animals were analyzed at day 14 and the experiments were limited to this time frame. Using the same scale, no metastatic lesions were detected in the other organs. […]
smiles,measurement,setting,value
CCCCCCCCCCCCCCCCC(=O)OC[C@@H](O)COP(=O)([O-])OCC[N+](C)(C)C [LysoPC],reduction of fatty acid ratio after replacing LysoPC medium,B16.F10 cells; 48 h after incubation in LysoPC-free DMEM medium,10-15%
same,membrane composition on repeated feeding,B16.F10 cells; repeated feeding (up to six times) every 48 h,did not further change the membrane composition
same,VLA-4 receptor expression,VLA-4,did not influence VLA-4 receptor expression
same,"quantification of metastatic spread by in vivo bioluminescence, differences LysoPC-treated vs untreated",[1],could not confirm
same,"metastatic lesions in the lung, mean percentage relative to untreated controls (100%)","[2]; B16.F10 ELN cells treated ex vivo six times with 450 μM LysoPC (long-term), injected i.v., lung luciferase assay day 14",51.7%
same,lung luciferase activity compared to control,"[2]; cells treated twice with 300 μM LysoPC (short-term), day 14",slightly but insignificantly enhanced luciferase activity
same,macroscopically visible metastatic foci on lung surface,"[2]; long-term 450 μM LysoPC group, day 14",clearly smaller numbers of metastatic foci
same,macroscopically visible metastatic foci on lung surface,"[2]; short-term 300 μM LysoPC group vs control, day 14",no differences were seen between the control and the short-term group
